# “Also recorded” adds a separate entry of the source.
# Experiments:
# [1] = test system: MCF-7 human breast cancer cells; assay: cell viability/apoptosis after 24 h exposure to pro-apoptotic peptides and CPP fusions; assay type: cell-based; conditions: MCF-7 cells, various concentrations
# Protocol: MCF-7 human breast cancer cells were incubated for 24 h in the presence of various concentrations of NRTN (squares), Nur (circles), and NurNRTN (triangles) peptides. The respective amino acid sequences are given in the bottom panel. The experimental approach for assessing cell viability (and thus induction of apoptosis) was the same as in FIG. 3.
# MCF-7 human breast cancer cells were incubated for 24 h in the presence of various concentrations of 4E-BP1 (circles), TAT4E-BP1 (squares), and NRTN4E-BP1 (triangles) peptides (top panel). […] The respective amino acid sequences are given in the bottom panel. The experimental approach for assessing cell viability (and thus induction of apoptosis) was the same as in FIG. 3.
# Luminescence was analyzed in an InfiniteF200 luminescence reader.
# Then, the cells were treated with a luminogenic peptide substrate in order to measure dead-cell protease activity, which is released from cells that have lost membrane integrity. […] The luminescence of this assay therefore represents dead cells. The 96 well plates were then analyzed in an InfiniteF200 luminescence reader.
# Despite its proven ability to convert BCL-2 into a pro-apoptotic molecule, addition of the latter peptide (i.e. “Nor/Nur”; SEQ ID NO: 72) to cancer cells, even in high concentrations, is not sufficient to induce apoptosis, as the cellular target protein is located in the cytoplasm, but the peptide per se cannot effectively penetrate through the cell membrane to reach the target. In brief, MCF-7 breast cancer cells were incubated in the presence of this peptide for 24 h.
# Subsequently, it was evaluated whether the NurNRTN fusion peptide is capable of penetrating cellular membranes and thereby induces pro-apoptotic activity within cells. MCF-7 human breast cancer cells were used as a model. The experimental approach was as described above (cf. Example 1). […] This effect was dose dependent: cytotoxicity increased with increasing concentrations of peptide.
# Subsequently, it was evaluated whether the NRTN4E-BP1 fusion peptide is capable of penetrating cellular membranes and thereby induces pro-apoptotic activity within cells. MCF-7 human breast cancer cells were used as a model. The experimental approach was as described above (cf. Example 1). […] This effect was dose dependent: cytotoxicity increased with increasing concentrations of peptide.
# human Aha1 mRNA = assay: siRNA transfection in the presence of serum; assay type: cell-based; conditions: serum-containing medium
# Protocol: NRTN was analyzed for its ability to transfect siRNA duplexes in the absence (A) and presence (B) of serum in the transfection medium. The experimental approach was the same as in FIG. 3. The assay was either carried out in normal RPMI 1640 growth medium containing 10% FCS (B) or for three hours in OptiMEM reduced serum medium followed by change of the medium back to normal growth medium (A). The mRNA values obtained at 1 μM were set to 100% to show dose dependent effects. Aha1 siRNA is shown as black filled squares; luciferase siRNA is shown as non-filled circles.
# Most of the assays described herein were performed under the “standard in vitro conditions” for the detection of peptide-mediated transfection that are well established in the art (see, e.g., Simeoni, F. et al. (2003) Nucleic Acids Res. 31, 2717-2724; Richard, J. P. et al. (2005) J. Biol. Chem. 280, 15300-15306; Abes, R. et al. (2007) Biochem. Soc. Trans. 35, 775-779; Kumar, P. et al. (2007) Nature 448, 39-43; Mueller, J. et al. (2008) Bioconjug. Chem. 19, 2363-2374; Sugita, T. et al. (2008) Br. J. Pharmacol. 153, 1143-1152). Accordingly, the incubation for the initial “transfection step” is performed under basically serum free conditions. The addition of serum at this step interferes with the transfection ability of the CPPs (cf. FIG. 13; see also Ignatovich, I. A. et al. (2003), supra). […]
# [2] = test system: hCMEC/D3 brain endothelial cells; assay: uptake into brain endothelial cells (blood-brain-barrier cell culture model); assay type: cell-based; conditions: FITC-conjugated peptide (N- and C-terminal), 5 μM, 1 h, 37° C.; hCMEC/D3 or primary human brain endothelial cells
# Protocol: Fluorescein isothiocyanate (FITC)-conjugated NRTN peptides (N-terminal and C-terminal conjugation, respectively) were incubated with hCMEC/D3 brain endothelial cells at 5 μM for 1 h at 37° C. Subsequently, the cells were washed and fixed. Images were taken using a fluorescence microscope.
# In order to evaluate potential interactions of the NRTN-derived peptide with endothelial cells forming the blood-brain-barrier, hCMEC/D3 cells or primary human brain endothelial cells were exposed to the NRTN-derived peptide in a blood-brain-barrier (BBB) model (Weksler, B. B. et al. (2005) FASEB J. 19, 1872-1874; Poller, B. et al. (2008) J. Neurochem. 107, 1358-1363). […] Thus, the NRTN-derived peptide localizes to a compartment that is important for BBB functionality (that is, for mediating and controlling transport across the BBB).
# MCF7 cells = assay: growth inhibition/toxicity (CellTiter-Glo viability, GAPDH mRNA levels)
# Protocol: MCF7 cells were seeded at a density of 15.000 cells per well in 96 well plates. The cells were incubated for 24 hours at 37° C., 5% CO2 and 85% humidity in RPMI 1640 medium supplemented with 10% FCS (fetal calf serum) and L-glutamine. For functional assays, the cells were washed in OptiMEM medium and RPMI 1640 was replaced with OptiMEM (all reagents were purchased from Invitrogen Corporation, Carlsbad, Calif., USA). Complexes of siRNAs and peptides were formed by incubation of 100 nM siRNA with the indicated peptide concentrations in OptiMEM for 30 minutes at room temperature. The complexes were added to the cells and incubated for 3 hours. Subsequently, OptiMEM was replaced with normal RPMI 1640 growth medium. The cells were incubated for further 21 hours for generating bDNA lysates, and for further 45 hours for performing CellTiter-Glo or CytoTox-Glo assays (cf. below).
# In order to measure the number of living cells the CellTiter-Glo Luminescent Cell Viability Assay (Promega Corporation, Madison, Wis., USA) was used according to the protocol of the manufacturer. The cells were incubated for 48 hours in the presence of peptides and siRNAs. Subsequently, the cells are lysed, and a luminescent signal proportional to the amount of ATP present is generated which, in turn, is proportional to the number of living cells present. Luminescence was analyzed in an InfiniteF200 luminescence reader.
# Based on this observation, GAPDH mRNA levels were used as a general readout for toxicity: an average measurement of 100% GAPDH mRNA relative to the medium control was considered as non-toxic, values between 99% and 70% as moderate toxic, and values of less than 70% as toxic (cf. FIG. 3).
# Similarly, peptides resulting in GAPDH mRNA values >70% were classified as “nontoxic”, whereas peptides that caused a reduction of GAPDH mRNA to lesser values were termed “toxic”.
# siRNA duplex = assay: gel-shift assay of peptide/siRNA complex formation; assay type: binding; conditions: ethidium bromide staining
# Protocol: Gel-shift assays were performed by mixing […] siRNA duplex with the respective peptides in a given molar ratio in water. The complexes were formed for 1 hour at 37° C. and analyzed on a 2.5% agarose gel with ethidium bromide (run: 40 minutes at 125 V). For proteinase K treatment, 1 μl proteinase K was added to a standard reaction as indicated above.
# Mechanisms that may explain transfection functionalities of charged peptides such as TAT or protamine include the formation of complexes between positively charged peptides and negatively charged nucleic acids. Such complexes enable peptide-mediated membrane-interacting and/or endosome escape functionalities to transfer the complexed nucleic acids into the cytosol of cells (Law, M. et al. (2008) Biotechnol. Prog. 24, 957-963) In order to address whether the above mechanism may apply to the NTRN-derived peptide as well gel-shift assays were performed (cf. FIG. 8). To this end, siRNA was co-incubated with increasing concentrations of peptide, followed by analyses of their migration pattern via gel electrophoresis.
sequence,measurement,setting,value
GAAEAAARVYDLGLRRLRQRRRLRRERVRA (NRTN peptide sequence; listed as Homo sapiens) [peptide derived from human neurturin],cell viability / induction of apoptosis,[1],did not affect cell viability or lead to induction of apoptosis
same,transfection in the presence of medium with reduced serum concentration,human Aha1 mRNA,can still mediate transfection
same,uptake / localization in brain endothelial cells,[2],accumulates (i.e. internalizes) under these assay conditions in endosomal structures; also recorded: localizes to intracellular endosomal structures
same,interference with cell viability at doses effective for Eg5 knockdown,MCF7 cells; <10 μM,does not interfere with cell viability
same,"cell viability / growth inhibition / toxicity (CellTiter-Glo, GAPDH mRNA levels)","MCF7 cells; MCF7 cells, peptide 1 μM to 20 μM",only minor effects on cell viability
same,complex formation with siRNA,siRNA duplex,able to form stable complexes with siRNA
